In ChEMBL document CHEMBL5647692, “The novel dual PI3K/mTOR inhibitor NVP-BGT226 displays cytotoxic activity in both normoxic and hypoxic hepatocarcinoma cells” (Oncotarget, 2015):
The source made the active and inactive calls. The calls are words filed in the database; no cut-off is given here.

Key:
Hep 3B2 [1] = assay: Cytotoxicity against human Hep3B cells assessed as reduction in cell viability incubated for 48 hrs by MTT assay; type: functional, cell-based
Mahlavu [2] = assay: Cytotoxicity against human Mahlavu cells assessed as reduction in cell viability at 0.5 uM incubated for 24 hrs in presence of chloroquine by MTT assay; type: functional, cell-based
[3] = Inhibition of PI3K/Akt/mTOR signaling pathway in human SNU-475 cells assessed as reduction in phosphorylation of mTORC1 substrate S6 incubated for 1 hr under normoxia condition by Western blotting analysis; type: cell-based; settings: dose 0.25-1 µM
[4] = Inhibition of PI3K/Akt/mTOR signaling pathway in human SNU-449 cells assessed as reduction in phosphorylation of mTORC1 substrate S6 incubated for 1 hr under normoxia condition by Western blotting analysis; type: cell-based; settings: dose 0.25-1 µM
SNU-475 [5] = assay: Cytotoxicity against human SNU-475 cells assessed as reduction in cell viability incubated for 24 hrs under normoxia condition by MTT assay; type: functional, cell-based
Mahlavu [6] = assay: Induction of autophagy in human Mahlavu cells assessed as increased expression of LC3 A/B II at 0.5 uM incubated for 24 hrs in presence of chloroquine under hypoxia condition by Western blot analysis; type: functional, cell-based
[7] = Inhibition of PI3K/Akt/mTOR signaling pathway in human Mahlavu cells assessed as reduction in S6 phosphorylation at 1 to 10 nM incubated for 1 hr under hypoxia condition by Western blotting analysis; type: cell-based; settings: dose 1-10 nM
Hep 3B2 [8] = assay: Induction of apoptosis in human Hep3B cells assessed as cleaved Caspase 7 level at 0.5 uM incubated for 24 hrs by Western blotting analysis; type: functional, cell-based
Hep 3B2 [9] = assay: Induction of apoptosis in human Hep3B cells assessed as cleaved PARP level at 0.5 uM incubated for 24 hrs by Western blotting analysis; type: functional, cell-based
[10] = Inhibition of PI3K/Akt/mTOR signaling pathway in human SNU-449 cells assessed as reduction in phosphorylation of GSK3 alpha/beta incubated for 1 hr under normoxia condition by Western blotting analysis; type: cell-based; settings: dose 0.25-1 µM
[11] = Inhibition of PI3K/Akt/mTOR signaling pathway in human SNU-475 cells assessed as reduction in S6 phosphorylation at 1 to 10 nM incubated for 1 hr under hypoxia condition by Western blotting analysis; type: cell-based; settings: dose 1-10 nM
Hep 3B2 [12] = assay: Anti-tumor activity against human Hep3B cells assessed as reduction of VEGF level incubated for 24 hrs under hypoxia condition by Western blot analysis; type: functional, cell-based; settings: dose 0.01-0.1 µM
[13] = Inhibition of PI3K/Akt/mTOR signaling pathway in human Hep3B cells assessed as reduction in phosphorylation of mTORC1 substrate S6 incubated for 1 hr under normoxia condition by Western blotting analysis; type: cell-based; settings: dose 0.25-1 µM
Mahlavu [14] = assay: Induction of apoptosis in human Mahlavu cells assessed as necrotic cells at 0.66 uM incubated for 24 hrs by Annexin-V/7-AAD staining based muse cell analyzer method (reference value: 0.67 %); type: functional
Hep 3B2 [15] = assay: Cytotoxicity against human Hep3B cells assessed as reduction in cell viability at 0.5 uM incubated for 24 hrs in presence of 3-Methyladenine by MTT assay; type: functional, cell-based
[16] = Inhibition of PI3K/Akt/mTOR signaling pathway in human SNU-449 cells assessed as reduction in phosphorylation of Akt incubated for 1 hr under normoxia condition by Western blotting analysis; type: cell-based; settings: dose 0.25-1 µM
[17] = Inhibition of PI3K/Akt/mTOR signaling pathway in human Mahlavu cells assessed as reduction in phosphorylation of Akt incubated for 1 hr under normoxia condition by Western blotting analysis; type: cell-based; settings: dose 0.25-1 µM
Mahlavu [18] = assay: Cytotoxicity against human Mahlavu cells assessed as reduction in cell viability at 0.5 to 5 uM incubated for 24 hrs by MTT assay; type: functional, cell-based; settings: dose 0.5-5 µM
[19] = Inhibition of PI3K/Akt/mTOR signaling pathway in human SNU-475 cells assessed as reduction in phosphorylation of Akt at 1 to 10 nM incubated for 1 hr under normoxia condition by Western blotting analysis; type: cell-based; settings: dose 1-10 nM
Mahlavu [20] = assay: Induction of apoptosis in human Mahlavu cells assessed as necrotic cells at IC50 incubated for 24 hrs in presence of Z-VAD-fmk by Annexin-V/7-AAD staining based muse cell analyzer method (reference value: 0.67 %); type: functional
Mahlavu [21] = assay: Induction of autophagy in human Mahlavu cells assessed as reduction in cytotoxicity at 0.5 uM incubated for 24 hrs by MTT assay; type: functional, cell-based
SNU-449 = assay: Cytotoxicity against human SNU-449 cells assessed as reduction in cell viability incubated for 24 hrs under hypoxia condition by MTT assay; type: functional, cell-based
SNU-475 [22] = assay: Induction of autophagy in human SNU-475 cells assessed as reduction in cytotoxicity at 0.5 uM incubated for 24 hrs by MTT assay; type: functional, cell-based
Mahlavu [23] = assay: Cytotoxicity against human Mahlavu cells assessed as reduction in cell viability incubated for 24 hrs under normoxia condition by MTT assay; type: functional, cell-based
[24] = molecular target: Hypoxia-inducible factor 1-alpha (Homo sapiens) (UniProt Q16665); assay: Inhibition of HIF-1alpha in human Mahlavu cells incubated for 6 hrs under hypoxia condition by Western blot analysis; type: cell-based; settings: dose 0.01-0.1 µM
Mahlavu [25] = assay: Induction of autophagy in human Mahlavu cells assessed as decreased expression of SQSTM1/p62 level incubated for 24 hrs under hypoxia condition by Western blot analysis; type: functional, cell-based; settings: dose 0.1-0.5 µM
SNU-475 [26] = assay: Cytotoxicity against human SNU-475 cells assessed as reduction in cell viability at 0.5 uM incubated for 24 hrs in presence of chloroquine under hypoxia condition by MTT assay; type: functional, cell-based
Mahlavu [27] = assay: Cytotoxicity against human Mahlavu cells assessed as reduction in cell viability incubated for 48 hrs by MTT assay; type: functional, cell-based
Hep 3B2 [28] = assay: Cytotoxicity against human Hep3B cells assessed as reduction in cell viability at 0.5 to 5 uM incubated for 24 hrs by MTT assay; type: functional, cell-based; settings: dose 0.5-5 µM
SNU-475 [29] = assay: Cytotoxicity against human SNU-475 cells assessed as reduction in cell viability at 0.5 uM incubated for 24 hrs in presence of 3-Methyladenine by MTT assay; type: functional, cell-based
Mahlavu [30] = assay: Induction of autophagy in human Mahlavu cells assessed as reduction in SQSTM1/p62 level by Western blot analysis; type: functional, cell-based; settings: dose 0.1-0.5 µM
Hep 3B2 [31] = assay: Induction of cell cycle arrest in human Hep3B cells assessed as decrease in accumulation of cells in S phase incubated at 0.01 to 0.1 uM for 24 hrs by propidium iodide staining based muse cell analysis; type: functional; settings: dose 0.01-0.1 µM
Mahlavu [32] = assay: Induction of apoptosis in human Mahlavu cells assessed as cleaved Caspase 9 level at 0.5 uM incubated for 24 hrs by Western blotting analysis; type: functional, cell-based
Mahlavu [33] = assay: Induction of apoptosis in human Mahlavu cells assessed as chromatin condensation under normoxia condition at 0.1 to 0.5 uM incubated for 24 hrs by DAPI staining based fluorescence microscope analysis; type: functional, cell-based; settings: dose 0.1-0.5 µM
HepG2 = assay: Cytotoxicity against human HepG2 cells assessed as reduction in cell viability at 0.5 to 5 uM incubated for 24 hrs by MTT assay; type: functional, cell-based; settings: dose 0.5-5 µM
[34] = Inhibition of PI3K/Akt/mTOR signaling pathway in human SNU-475 cells assessed as reduction in phosphorylation of Akt at 1 to 10 nM incubated for 1 hr under hypoxia condition by Western blotting analysis; type: cell-based; settings: dose 1-10 nM
SNU-475 [35] = assay: Induction of autophagy in human SNU-475 cells assessed as increase expression of LC3 A/B II at 0.5 uM incubated for 24 hrs in presence of chloroquine under hypoxia condition by Western blot analysis; type: functional, cell-based

Sequence of Hypoxia-inducible factor 1-alpha (Homo sapiens) (Q16665 whole entry, looked up): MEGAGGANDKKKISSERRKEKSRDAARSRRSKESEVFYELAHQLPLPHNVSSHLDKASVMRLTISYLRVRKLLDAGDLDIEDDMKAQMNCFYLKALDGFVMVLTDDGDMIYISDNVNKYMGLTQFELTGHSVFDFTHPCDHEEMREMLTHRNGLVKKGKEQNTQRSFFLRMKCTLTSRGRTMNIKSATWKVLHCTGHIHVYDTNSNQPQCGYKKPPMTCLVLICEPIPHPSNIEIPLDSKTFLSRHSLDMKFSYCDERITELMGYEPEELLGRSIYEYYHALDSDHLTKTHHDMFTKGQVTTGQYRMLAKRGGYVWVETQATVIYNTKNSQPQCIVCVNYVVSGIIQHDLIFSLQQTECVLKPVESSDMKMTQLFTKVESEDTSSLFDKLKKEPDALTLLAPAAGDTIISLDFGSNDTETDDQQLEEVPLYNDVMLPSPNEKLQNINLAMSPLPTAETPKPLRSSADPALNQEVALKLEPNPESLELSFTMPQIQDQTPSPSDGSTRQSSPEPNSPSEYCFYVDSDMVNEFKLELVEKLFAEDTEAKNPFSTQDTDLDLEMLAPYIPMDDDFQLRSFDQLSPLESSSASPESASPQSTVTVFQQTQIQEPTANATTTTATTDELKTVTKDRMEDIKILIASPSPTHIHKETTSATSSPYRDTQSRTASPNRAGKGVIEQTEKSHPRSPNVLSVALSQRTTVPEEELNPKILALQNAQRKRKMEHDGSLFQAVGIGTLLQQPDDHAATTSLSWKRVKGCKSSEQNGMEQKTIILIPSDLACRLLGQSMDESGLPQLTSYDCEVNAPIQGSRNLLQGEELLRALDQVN

Q: What does the source list for `COc1ccc(-c2ccc3ncc4c(c3c2)n(-c2ccc(N3CCNCC3)c(C(F)(F)F)c2)c(=O)n4C)cn1` [BGT-226 FREE BASE]?
A: IC50 (Hep 3B2 [1]): 1220 nM; Activity (Mahlavu [2]): Active; inhibition [3]: Dose-Dependent Effect; inhibition [4]: Dose-Dependent Effect; Activity (SNU-475 [5]): Active; Activity (Mahlavu [6]): Active; inhibition [7]: Active; Activity (Hep 3B2 [8]): Active; Activity (Hep 3B2 [9]): Active; inhibition [10]: Dose-Dependent Effect; inhibition [11]: Active; Activity (Hep 3B2 [12]): Dose-Dependent Effect; inhibition [13]: Dose-Dependent Effect; Activity (Mahlavu [14]): 0%; Activity (Hep 3B2 [15]): Active; inhibition [16]: Dose-Dependent Effect; inhibition [17]: Dose-Dependent Effect; Activity (Mahlavu [18]): Active; inhibition [19]: Active; Activity (Mahlavu [20]): 0.54%; Activity (Mahlavu [21]): Active; Activity (SNU-449): Active; Activity (SNU-475 [22]): Active; Activity (Mahlavu [23]): Active; inhibition [24]: Dose-Dependent Effect; Activity (Mahlavu [25]): Dose-Dependent Effect; Activity (SNU-475 [26]): Active; IC50 (Mahlavu [27]): 550 nM; Activity (Hep 3B2 [28]): Active; Activity (SNU-475 [29]): Active; Activity (Mahlavu [30]): Dose-Dependent Effect; Activity (Hep 3B2 [31]): Active; Activity (Mahlavu [32]): Active; Activity (Mahlavu [33]): Active; Activity (HepG2): Active; inhibition [34]: Active; Activity (SNU-475 [35]): Active
